Laboratory results reported in paper PMC4696607 (ACS infectious diseases, 2015).

Key:
[1] = tested on: anthrax lethal factor (LF); settings: cited from earlier work
WNV = test: microbe, parasite or virus in culture; type: cell-based, West Nile virus (WNV); settings: West Nile virus, 42 h
WEEV = type: cell-based
[2] = cited from earlier work
JEV = test: microbe, parasite or virus in culture; type: cell-based, Japanese encephalitis virus (JEV); settings: Japanese encephalitis virus, A549, 42 h
WNV MTase [3] = biological target: T1, WNV MTase (West Nile virus, UniProt Q9Q6P4); test: N7 methylation inhibition assay, WNV MTase; settings: for IC50: WNV MTase
T1 sequence (Q9Q6P4 2529-2794): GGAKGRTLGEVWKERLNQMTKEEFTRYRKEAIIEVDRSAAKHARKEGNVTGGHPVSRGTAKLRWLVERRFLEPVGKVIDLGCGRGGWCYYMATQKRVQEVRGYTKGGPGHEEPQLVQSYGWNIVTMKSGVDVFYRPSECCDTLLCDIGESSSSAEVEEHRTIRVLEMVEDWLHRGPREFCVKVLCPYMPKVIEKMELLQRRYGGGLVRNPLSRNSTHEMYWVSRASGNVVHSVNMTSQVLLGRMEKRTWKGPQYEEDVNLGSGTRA

DENV3MTase = DENV3MTase (Dengue virus type 3, UniProt Q6YMS4); test: Competitive SAM binding assay
Chain of DENV3MTase (Q6YMS4 2492-2753): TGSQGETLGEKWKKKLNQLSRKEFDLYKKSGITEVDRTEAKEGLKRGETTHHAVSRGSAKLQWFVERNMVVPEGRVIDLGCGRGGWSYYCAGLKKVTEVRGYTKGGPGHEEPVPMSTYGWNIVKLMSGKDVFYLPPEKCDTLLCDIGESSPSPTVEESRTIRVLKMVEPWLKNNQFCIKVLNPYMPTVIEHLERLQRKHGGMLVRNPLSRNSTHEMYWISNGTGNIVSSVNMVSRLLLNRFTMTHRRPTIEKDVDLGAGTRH

DENV-2 = test: microbe, parasite or virus in culture; type: cell-based, Dengue virus (DENV-2); settings: Dengue virus, DENV2, A549, 42 h
BHK-21 cells = test: MTT cell proliferation cytotoxicity assay, BHK-21; type: cell-based; settings: for CC50 relative to IC50 (fold higher): BHK-21 CC50 vs in vitro IC50; for CC50: BHK-21 cells, MTT, 42 h
WNV MTase [4] = biological target: T1, WNV MTase; test: 2′-O methylation inhibition assay, WNV MTase
VSV = type: cell-based
SLEV = test: organism not typed; type: cell-based, St. Louis encephalitis viruses (SLEV); settings: A549, 42 h
[5] = tested on: herpes simplex virus (HSV)-1; settings: cited from earlier work
[6] = IC50 N7, with CHAPS, with CHAPS
[7] = read-out: IC50 N7, no CHAPS, no CHAPS
[8] = read-out: IC50 2′-O, with CHAPS, WNV MTase, with CHAPS

| SMILES | IC50 (WNV MTase [3]; IC50 N7, no CHAPS, no CHAPS) | IC50 (WNV MTase [3]; [6]) | IC50 (WNV MTase [4]) | IC50 (WNV MTase [3]; [7]) | CC50 (BHK-21 cells) | IC50 (WNV MTase [4]; [8]) | other results |
| --- | --- | --- | --- | --- | --- | --- | --- |
| Cc1cc(N)c2cc(NC(=O)Nc3ccc4nc(C)cc(N)c4c3)ccc2n1 [NSC 12155, aminoquinuride] | 1.4 µM | 0.87 µM | 3 µM | – | – | – | anthrax lethal factor (LF) activity [1]: inhibited; EC50 (WNV): 1 µM; inhibition of virus growth (WEEV): did not inhibit; binding to glycosaminoglycans [2]: bind to glycosaminoglycans; EC50 (JEV): 3.1 µM; IC50 (DENV3MTase): 1.2 µM; EC50 (DENV-2): 7 µM; CC50 relative to IC50 (fold higher) (BHK-21 cells): 20 fold; inhibition of virus growth (VSV): did not inhibit; EC50 (SLEV): 5.1 µM; cell adhesion by HSV-1 [5]: prevent cell adhesion |
| Nc1nc(-c2cccc([N+](=O)[O-])c2)cc(-c2cc(-c3cccc([N+](=O)[O-])c3)nc(N)n2)n1 [NSC 371880] | – | – | – | 63 µM | 212 µM | 72 µM | – |
| Nc1ncnc2c1ncn2[C@@H]1O[C@H](C[C@@H](N)CC[C@H](N)C(=O)O)[C@@H](O)[C@H]1O [SIN, sinefungin, reference compound] | – | – | – | – | – | – | effect of CHAPS on inhibition activity (WNV MTase [3]; N7 inhibition with detergent CHAPS): not affected at all; inhibition at 150 µM (WNV MTase [3]; read-out: inhibition of N7 activity of the WNV MTase): ~80% |
| S=C(Nc1ccc2c(c1)Cc1ccccc1-2)Nc1ccc2c(c1)Cc1ccccc1-2 [NSC 23217] | 15.7 µM | > 300 µM | 7.4 µM | – | – | – | – |
| O=C1C2=C(Nc3cc([N+](=O)[O-])ccc3N2)OC1c1ccc(C2OC3=C(Nc4ccc([N+](=O)[O-])cc4N3)C2=O)cc1 (stereo not shown) [NSC 372295] | – | – | – | 62 µM | 126 µM | 57 µM | – |
| Nc1ccc(-c2ccc(Nc3cc(S(=O)(=O)O)c(N)c4c3C(=O)c3ccccc3C4=O)cc2)c(S(=O)(=O)O)c1 [NSC 125910] | 7.6 µM | 17.6 µM | 3.2 µM | – | – | – | EC50 (WNV): 2.6 µM; CC50 relative to IC50 (fold higher) (BHK-21 cells): 20 fold |
| CC1OC(CC(=O)O)Cc2c1c(O)c1c(O)cc(-c3cc(=O)c4c(=O)c5c(c(=O)c=4c3=O)CC(CC(=O)O)OC5C)c(O)c1c2O (stereo not shown) [NSC 293161] | – | – | – | 13.2 µM | 25 µM | 54.6 µM | IC50 (WNV MTase [3]; read-out: IC50 N7, with CHAPS, with CHAPS): 31 µM |
